Assay results reported in the supplement of paper PMC13380429.

Legend:
Details in all cases: 72 h
[1] = system: Caco-2; experiment: cell viability relative to DMSO; higher = less toxic
[2] = system: Calu-3; experiment: as above
[3] = system: HepG2; experiment: as above
[4] = system: U2OS; experiment: as above
[5] = system: Vero E6; experiment: as above
[6] = system: Calu-3; experiment: relative viability EC50 (midpoint between 100% and the lowest measured viability); higher = less toxic
[7] = system: HepG2; experiment: as above
[8] = system: U2OS; experiment: as above
[9] = system: Vero E6; experiment: as above
[10] = system: Caco-2; experiment: drug sensitivity score (DSS) for viability; higher = more toxic; extreme values may be limits of the assay
[11] = system: Calu-3; experiment: as above
[12] = system: HepG2; experiment: as above
[13] = system: U2OS; experiment: as above
[14] = system: Vero E6; experiment: as above

Structure (SMILES): OC(CNCC(O)C1CCc2cc(F)ccc2O1)C1CCc2cc(F)ccc2O1 (stereo not drawn) [nebivolol]
- cell viability ([1]; 1 nM): 114%
- cell viability ([1]; 10 nM): 102%
- cell viability ([1]; 100 nM): 95.1%
- cell viability ([1]; 1000 nM): 89.7%
- cell viability ([1]; 10000 nM): 72.8%
- cell viability ([2]; 1 nM): 94.9%
- cell viability ([2]; 10 nM): 93.2%
- cell viability ([2]; 100 nM): 103%
- cell viability ([2]; 1000 nM): 105%
- cell viability ([2]; 10000 nM): 92.7%
- cell viability ([3]; 1 nM): 107%
- cell viability ([3]; 10 nM): 112%
- cell viability ([3]; 100 nM): 110%
- cell viability ([3]; 1000 nM): 98.4%
- cell viability ([3]; 10000 nM): 88.9%
- cell viability ([4]; 1 nM): 97.2%
- cell viability ([4]; 10 nM): 94.3%
- cell viability ([4]; 100 nM): 93.9%
- cell viability ([4]; 1000 nM): 99.8%
- cell viability ([4]; 10000 nM): 99.6%
- cell viability ([5]; 1 nM): 100%
- cell viability ([5]; 10 nM): 102%
- cell viability ([5]; 100 nM): 91.7%
- cell viability ([5]; 1000 nM): 94.2%
- cell viability ([5]; 10000 nM): 95.1%
- relative viability EC50 [6]: > 10 µM
- relative viability EC50 [7]: > 10 µM
- relative viability EC50 [8]: > 10 µM
- relative viability EC50 [9]: > 10 µM
- drug sensitivity score [10]: 1.9
- drug sensitivity score [11]: 0
- drug sensitivity score [12]: 0
- drug sensitivity score [13]: 0
- drug sensitivity score [14]: 0

Structure (SMILES): Cc1c(NC(=O)OC[C@@H]2COCCN2)cn2ncnc(Nc3ccc4c(cnn4Cc4cccc(F)c4)c3)c12
- cell viability ([1]; 1 nM): 102%
- cell viability ([1]; 10 nM): 101%
- cell viability ([1]; 100 nM): 85.1%
- cell viability ([1]; 1000 nM): 88.2%
- cell viability ([1]; 10000 nM): 69.3%
- cell viability ([2]; 1 nM): 97.2%
- cell viability ([2]; 10 nM): 96.4%
- cell viability ([2]; 100 nM): 92.4%
- cell viability ([2]; 1000 nM): 64.5%
- cell viability ([2]; 10000 nM): 26.4%
- cell viability ([3]; 1 nM): 89.8%
- cell viability ([3]; 10 nM): 104%
- cell viability ([3]; 100 nM): 96%
- cell viability ([3]; 1000 nM): 99.1%
- cell viability ([3]; 10000 nM): 82.2%
- cell viability ([4]; 1 nM): 96.6%
- cell viability ([4]; 10 nM): 101%
- cell viability ([4]; 100 nM): 99.4%
- cell viability ([4]; 1000 nM): 96.3%
- cell viability ([4]; 10000 nM): 79.3%
- cell viability ([5]; 1 nM): 98.5%
- cell viability ([5]; 10 nM): 103%
- cell viability ([5]; 100 nM): 91.7%
- cell viability ([5]; 1000 nM): 84.1%
- cell viability ([5]; 10000 nM): 60.7%
- relative viability EC50 [6]: 0.988 µM
- relative viability EC50 [7]: > 10 µM
- relative viability EC50 [8]: > 10 µM
- drug sensitivity score [10]: 3
- drug sensitivity score [11]: 8.2
- drug sensitivity score [12]: 0.5
- drug sensitivity score [13]: 1.1
- drug sensitivity score [14]: 3.5

Structure (SMILES): O=C(/C=C/c1ccc(O)c(O)c1)OCCc1ccccc1 [caffeic-acid-phenethyl-ester]
- cell viability ([1]; 1 nM): 92%
- cell viability ([1]; 10 nM): 99.6%
- cell viability ([1]; 100 nM): 101%
- cell viability ([1]; 1000 nM): 88.2%
- cell viability ([1]; 10000 nM): 66.9%
- cell viability ([2]; 1 nM): 95.4%
- cell viability ([2]; 10 nM): 97.4%
- cell viability ([2]; 100 nM): 99.1%
- cell viability ([2]; 1000 nM): 94.4%
- cell viability ([2]; 10000 nM): 90.3%
- cell viability ([3]; 1 nM): 92%
- cell viability ([3]; 10 nM): 106%
- cell viability ([3]; 100 nM): 99.6%
- cell viability ([3]; 1000 nM): 90.2%
- cell viability ([3]; 10000 nM): 73.9%
- cell viability ([4]; 1 nM): 98.4%
- cell viability ([4]; 10 nM): 102%
- cell viability ([4]; 100 nM): 98.9%
- cell viability ([4]; 1000 nM): 99.2%
- cell viability ([4]; 10000 nM): 69.9%
- cell viability ([5]; 1 nM): 96.9%
- cell viability ([5]; 10 nM): 101%
- cell viability ([5]; 100 nM): 96.4%
- cell viability ([5]; 1000 nM): 96.4%
- cell viability ([5]; 10000 nM): 90.6%
- relative viability EC50 [6]: > 10 µM
- relative viability EC50 [9]: > 10 µM
- drug sensitivity score [10]: 3.2
- drug sensitivity score [11]: 0
- drug sensitivity score [12]: 2.3
- drug sensitivity score [13]: 1.4
- drug sensitivity score [14]: 0

Structure (SMILES): COc1cc2c(cc1-c1c(C)noc1C)ncc1[nH]c(=O)n([C@H](C)c3ccccn3)c12 [I-BET151]
- cell viability ([1]; 1 nM): 104%
- cell viability ([1]; 10 nM): 87.1%
- cell viability ([1]; 100 nM): 89.8%
- cell viability ([1]; 1000 nM): 81%
- cell viability ([1]; 10000 nM): 56%
- cell viability ([2]; 1 nM): 97.4%
- cell viability ([2]; 10 nM): 99.5%
- cell viability ([2]; 100 nM): 114%
- cell viability ([2]; 1000 nM): 75%
- cell viability ([2]; 10000 nM): 65.3%
- cell viability ([3]; 1 nM): 104%
- cell viability ([3]; 10 nM): 99.7%
- cell viability ([3]; 100 nM): 91.9%
- cell viability ([3]; 1000 nM): 60.3%
- cell viability ([3]; 10000 nM): 33.6%
- cell viability ([4]; 1 nM): 97.4%
- cell viability ([4]; 10 nM): 95.6%
- cell viability ([4]; 100 nM): 94.4%
- cell viability ([4]; 1000 nM): 71.3%
- cell viability ([4]; 10000 nM): 44.3%
- cell viability ([5]; 1 nM): 104%
- cell viability ([5]; 10 nM): 105%
- cell viability ([5]; 100 nM): 94.6%
- cell viability ([5]; 1000 nM): 40.5%
- cell viability ([5]; 10000 nM): 13%
- relative viability EC50 [7]: 0.671 µM
- relative viability EC50 [8]: 0.89 µM
- relative viability EC50 [9]: 0.607 µM
- drug sensitivity score [10]: 4.9
- drug sensitivity score [11]: 4.5
- drug sensitivity score [12]: 8.6
- drug sensitivity score [13]: 6.3
- drug sensitivity score [14]: 12.2

Structure (SMILES): COc1ccc(-c2sc(NC(=O)C(C)(C)C)nc2C)cc1S(=O)(=O)Nc1ccc(O)cc1 [PI4KIII-beta-inhibitor-1]
- cell viability ([1]; 1 nM): 95.6%
- cell viability ([1]; 10 nM): 97%
- cell viability ([1]; 100 nM): 91.1%
- cell viability ([1]; 1000 nM): 90.7%
- cell viability ([1]; 10000 nM): 74.2%
- cell viability ([2]; 1 nM): 115%
- cell viability ([2]; 10 nM): 102%
- cell viability ([2]; 100 nM): 102%
- cell viability ([2]; 1000 nM): 91.2%
- cell viability ([2]; 10000 nM): 66.9%
- cell viability ([3]; 1 nM): 105%
- cell viability ([3]; 10 nM): 103%
- cell viability ([3]; 100 nM): 101%
- cell viability ([3]; 1000 nM): 90%
- cell viability ([3]; 10000 nM): 87.6%
- cell viability ([4]; 1 nM): 94.9%
- cell viability ([4]; 10 nM): 99.6%
- cell viability ([4]; 100 nM): 96.7%
- cell viability ([4]; 1000 nM): 93.1%
- cell viability ([4]; 10000 nM): 79.1%
- cell viability ([5]; 1 nM): 102%
- cell viability ([5]; 10 nM): 96.4%
- cell viability ([5]; 100 nM): 92.9%
- cell viability ([5]; 1000 nM): 96.1%
- cell viability ([5]; 10000 nM): 88.8%
- relative viability EC50 [7]: > 10 µM
- relative viability EC50 [8]: > 10 µM
- relative viability EC50 [9]: > 10 µM
- drug sensitivity score [10]: 1.8
- drug sensitivity score [11]: 2.8
- drug sensitivity score [12]: 0.5
- drug sensitivity score [13]: 1.1
- drug sensitivity score [14]: 0

Structure (SMILES): COc1ccc(F)c(F)c1C(=O)c1cnc(NC2CCN(S(C)(=O)=O)CC2)nc1N [R547]
- drug sensitivity score [11]: 9
- drug sensitivity score [12]: 16.1
- drug sensitivity score [13]: 10.3
- drug sensitivity score [14]: 10.7

Structure (SMILES): OCCNCCCOc1cccc(Cl)c1Cl [2,3-DCPE]
- cell viability ([1]; 1 nM): 93.9%
- cell viability ([1]; 10 nM): 105%
- cell viability ([1]; 100 nM): 106%
- cell viability ([1]; 1000 nM): 98.7%
- cell viability ([1]; 10000 nM): 69.4%
- cell viability ([2]; 1 nM): 99.1%
- cell viability ([2]; 10 nM): 98.6%
- cell viability ([2]; 100 nM): 98.1%
- cell viability ([2]; 1000 nM): 97.5%
- cell viability ([2]; 10000 nM): 107%
- cell viability ([3]; 1 nM): 103%
- cell viability ([3]; 10 nM): 96.1%
- cell viability ([3]; 100 nM): 89.7%
- cell viability ([3]; 1000 nM): 97.6%
- cell viability ([3]; 10000 nM): 13.3%
- cell viability ([4]; 1 nM): 105%
- cell viability ([4]; 10 nM): 101%
- cell viability ([4]; 100 nM): 100%
- cell viability ([4]; 1000 nM): 101%
- cell viability ([4]; 10000 nM): 18.1%
- cell viability ([5]; 1 nM): 92.5%
- cell viability ([5]; 10 nM): 96.1%
- cell viability ([5]; 100 nM): 103%
- cell viability ([5]; 1000 nM): 97.9%
- cell viability ([5]; 10000 nM): 15.5%
- relative viability EC50 [6]: > 10 µM
- relative viability EC50 [7]: 2.96 µM
- relative viability EC50 [8]: 3.21 µM
- relative viability EC50 [9]: 2.99 µM
- drug sensitivity score [10]: 1.5
- drug sensitivity score [11]: 0
- drug sensitivity score [12]: 5.1
- drug sensitivity score [13]: 4.5
- drug sensitivity score [14]: 5
